Measurements: the NIST ThermoML archive (doi:10.1016/j.jct.2013.09.006)

What was measured:
[1] = 101.33 kPa, Liquid; for viscosity: Capillary tube (Ostwald / Ubbelohde) method; for mass density: Vibrating tube method
[2] = refractive index (Na D-line) (dimensionless); settings: 101.33 kPa, Liquid, Standard Abbe refractometry

CCO [ethanol]
Settings | mass density, 298.15 K [kg/m3] | mass density, 303.15 K [kg/m3] | mass density, 308.15 K [kg/m3] | refractive index, 298.15 K | refractive index, 303.15 K | refractive index, 308.15 K | viscosity, 298.15 K [mPa·s] | viscosity, 303.15 K [mPa·s] | viscosity, 308.15 K [mPa·s]
[1] | 785.9 | 780.2 | 776.5 | – | – | – | 1.09 | 0.95 | 0.87
[2] | – | – | – | 1.3593 | 1.3573 | 1.3556 | – | – | –
